Toxic doses and inconclusive results are not listed.
Tested on: P388 leukemia ip, CD2F1 mice, survival T/C
Experiment: NCI In Vivo Anticancer Drug Screen. Data for tumor model P388 Leukemia (intraperitoneal) in CD2F1 (CDF1) mice
Conditions: endpoint: median survival time, higher = longer survival
Procedure, shortened: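 Mice carrying the transplanted tumor received test compound or vehicle. Survival was recorded in each group, and the value is the treated-group measurement divided by that of the vehicle-treated control group.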

[1] = dose: 50.0 mg/kg/injection, schedule: Q01DX009 (ip), vehicle: saline with Tween-80
[2] = dose: 100.0 mg/kg/injection, schedule: Q01DX009 (ip), vehicle: saline with Tween-80
[3] = dose: 200.0 mg/kg/injection, schedule: Q01DX009 (ip), vehicle: saline with Tween-80
[4] = dose: 60.0 mg/kg/injection, schedule: Q01DX005 (ip), vehicle: saline with Tween-80
[5] = dose: 120.0 mg/kg/injection, schedule: Q01DX005 (ip), vehicle: saline with Tween-80
[6] = dose: 240.0 mg/kg/injection, schedule: Q01DX005 (ip), vehicle: saline with Tween-80
[7] = dose: 50.0 mg/kg/injection, schedule: Q01DX005 (ip), vehicle: saline with Tween-80
[8] = dose: 100.0 mg/kg/injection, schedule: Q01DX005 (ip), vehicle: saline with Tween-80
[9] = dose: 200.0 mg/kg/injection, schedule: Q01DX005 (ip), vehicle: saline with Tween-80
[10] = dose: 50.0 mg/kg/injection, schedule: Q01DX005 (ip), vehicle: Klucel (hydroxypropylcellulose) (HPC)
[11] = dose: 100.0 mg/kg/injection, schedule: Q01DX005 (ip), vehicle: Klucel (hydroxypropylcellulose) (HPC)
[12] = dose: 200.0 mg/kg/injection, schedule: Q01DX005 (ip), vehicle: Klucel (hydroxypropylcellulose) (HPC)

O=C(CNC(c1ccccc1)(c1ccccc1)c1ccccc1)OC(c1ccccc1)c1ccccc1
T/C [1]: 104 % of control | T/C [2]: 118 % of control | T/C [3]: 90 % of control

COc1ccc(/C=C\Cc2cc3c(cc2OCCO)OCO3)cc1
T/C [4]: 101 % of control | T/C [5]: 94 % of control | T/C [6]: 98 % of control

c1ccc(CN2COc3c4c(c5ccccc5c3C2)CN(Cc2ccccc2)CO4)cc1
T/C [7]: 90 % of control | T/C [8]: 103 % of control | T/C [9]: 93 % of control

CC(OCc1ccccc1)C(NC(=O)OC(C)(C)C)C(=O)O (stereo unspecified)
T/C [10]: 113 % of control | T/C [7]: 103 % of control | T/C [11]: 94 % of control | T/C [8]: 100 % of control | T/C [12]: 96 % of control | T/C [9]: 98 % of control

CC(C)NC(=O)OCc1c(COC(=O)NC(C)C)c(-c2ccc(Cl)c(Cl)c2)n2c1C[C@@H](O)C2
T/C (dose: 2.5 mg/kg/injection, schedule: Q01DX005 (ip), vehicle: Klucel (hydroxypropylcellulose) (HPC)): 120 % of control | T/C (dose: 5.0 mg/kg/injection, schedule: Q01DX005 (ip), vehicle: Klucel (hydroxypropylcellulose) (HPC)): 120 % of control | T/C [10]: 150 % of control | T/C [11]: 166 % of control

CCn1c(=S)[nH]c2sc3c(c2c1=O)CCCCC3
T/C [5]: 89 % of control | T/C [6]: 101 % of control

CN1c2ccccc2SC12C(=O)N(c1ccccc1)C(=O)N2c1ccccc1 (stereo unspecified)
T/C [1]: 103 % of control | T/C [2]: 100 % of control | T/C [3]: 103 % of control

Oc1cc(O)cc(/C=C/c2ccc(O)cc2O)c1
T/C (dose: 2.0 mg/kg/injection, schedule: Q01DX009 (ip), vehicle: Klucel (hydroxypropylcellulose) (HPC)): 102 % of control | T/C (dose: 4.0 mg/kg/injection, schedule: Q01DX009 (ip), vehicle: Klucel (hydroxypropylcellulose) (HPC)): 105 % of control | T/C (dose: 8.0 mg/kg/injection, schedule: Q01DX009 (ip), vehicle: Klucel (hydroxypropylcellulose) (HPC)): 101 % of control | T/C (dose: 16.0 mg/kg/injection, schedule: Q01DX009 (ip), vehicle: Klucel (hydroxypropylcellulose) (HPC)): 94 % of control | T/C (dose: 32.0 mg/kg/injection, schedule: Q01DX009 (ip), vehicle: Klucel (hydroxypropylcellulose) (HPC)): 101 % of control

O=C(O)CCO/N=C1/Oc2ccc(Cl)cc2C1=O
T/C [4]: 103 % of control | T/C [5]: 102 % of control | T/C [6]: 101 % of control

CC1=C/C(=N\[Se]c2ccccc2)C(=O)C(C)=C1
T/C (dose: 100.0 mg/kg/injection, schedule: Q04DX003 (ip), vehicle: Klucel (hydroxypropylcellulose) (HPC)): 100 % of control | T/C (dose: 200.0 mg/kg/injection, schedule: Q04DX003 (ip), vehicle: Klucel (hydroxypropylcellulose) (HPC)): 91 % of control | T/C (dose: 400.0 mg/kg/injection, schedule: Q04DX003 (ip), vehicle: Klucel (hydroxypropylcellulose) (HPC)): 96 % of control

O=C1C2CCCN2C(=S)N1c1ccc([N+](=O)[O-])cc1 (stereo unspecified)
T/C [10]: 100 % of control | T/C [11]: 100 % of control | T/C [12]: 99 % of control

CN1CCc2[nH]c3ccccc3c2C1
T/C (dose: 100.0 mg/kg/injection, schedule: Q04DX002 (ip), vehicle: Klucel (hydroxypropylcellulose) (HPC)): 100 % of control | T/C (dose: 200.0 mg/kg/injection, schedule: Q04DX002 (ip), vehicle: Klucel (hydroxypropylcellulose) (HPC)): 102 % of control

CC(C)(C)C(=O)Nc1c(Cl)cc(Br)cc1Br
T/C (dose: 50.0 mg/kg/injection, schedule: Q01DX009 (ip), vehicle: saline + alcohol): 105 % of control | T/C (dose: 100.0 mg/kg/injection, schedule: Q01DX009 (ip), vehicle: saline + alcohol): 101 % of control | T/C (dose: 200.0 mg/kg/injection, schedule: Q01DX009 (ip), vehicle: saline + alcohol): 100 % of control

O=C(O)c1cnc2cc3c(cc2c1Nc1ccccc1)OCO3
T/C (dose: 60.0 mg/kg/injection, schedule: Q01DX005 (ip), vehicle: Klucel (hydroxypropylcellulose) (HPC)): 99 % of control | T/C (dose: 120.0 mg/kg/injection, schedule: Q01DX005 (ip), vehicle: Klucel (hydroxypropylcellulose) (HPC)): 102 % of control | T/C (dose: 240.0 mg/kg/injection, schedule: Q01DX005 (ip), vehicle: Klucel (hydroxypropylcellulose) (HPC)): 90 % of control
